Values joined by “and” are separate entries in the source; they are usually repeats but may differ in a detail not shown here. Equal values may be shown once.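 Protocol summary: plate cells (96-well), add compound at 5 concentrations, incubate 48 h, interpolate endpoints linearly. Here, GI50 denotes the concentration required for 50% inhibition of growth. At the TGI there is no net growth.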
Columns and labels:
Test in all cases: NCI-60 cell line screen, 48 h
HL-60(TB) leukemia = system: HL-60(TB) leukemia
HOP-92 NSCLC = system: HOP-92 NSCLC
HS 578T breast = system: HS 578T breast
M14 melanoma = system: M14 melanoma
MDA-MB-231 breast = system: MDA-MB-231 breast
NCI-H226 lung = system: NCI-H226 lung
NCI/ADR-RES ovarian = system: NCI/ADR-RES ovarian
OVCAR-8 ovarian = system: OVCAR-8 ovarian
NCI-H522 lung = system: NCI-H522 lung
TK-10 renal = system: TK-10 renal

| Structure (SMILES) | TGI (HL-60(TB) leukemia) [µM] | TGI (HOP-92 NSCLC) [µM] | TGI (HS 578T breast) [µM] | TGI (M14 melanoma) [µM] | TGI (MDA-MB-231 breast) | TGI (NCI-H226 lung) | TGI (NCI/ADR-RES ovarian) | TGI (OVCAR-8 ovarian) [µM] | TGI (NCI-H522 lung) | TGI (TK-10 renal) [µM] | GI50 (HL-60(TB) leukemia) [µM] | GI50 (NCI-H226 lung) | GI50 (NCI-H522 lung) | GI50 (NCI/ADR-RES ovarian) [µM] | GI50 (HOP-92 NSCLC) [µM] | GI50 (HS 578T breast) [µM] | GI50 (MDA-MB-231 breast) | GI50 (OVCAR-8 ovarian) [µM] | GI50 (TK-10 renal) [µM] | GI50 (M14 melanoma) [µM] |
| --- | --- | --- | --- | --- | --- | --- | --- | --- | --- | --- | --- | --- | --- | --- | --- | --- | --- | --- | --- | --- |
| NC(=S)NNC(=S)NC(=O)c1ccco1 | > 10 | > 10 | > 10 | > 10 | > 10 µM | > 10 µM | > 10 µM | > 10 |  |  |  |  |  |  |  |  |  |  |  |  |
| O=c1c(O)cccn1C1OC(CO)C(O)C1O (stereo not given) |  | > 100 |  | > 100 |  | > 100 µM |  | > 100 | > 100 µM | > 100 |  |  |  |  |  |  |  |  |  |  |
| O=c1c2cc(Br)ccc2ncn1COCc1ccccc1 |  | > 100 |  | > 100 |  | > 1 µM | > 1 µM | > 1 |  | > 100 |  |  |  |  |  |  |  |  |  |  |
| CCC1(OC(=O)CN)C(=O)OCc2c1cc1n(c2=O)Cc2cc3cc4c(cc3nc2-1)OCO4 (stereo not given) |  |  |  |  |  | 0.201 µM and 0.299 µM | 0.231 µM and 0.0889 µM |  | 1.43 µM and 0.243 µM |  | < 0.01 | 0.024 µM and < 0.01 µM | 0.0531 µM and < 0.01 µM | < 0.01 |  |  |  |  |  |  |
| Cc1cc2nc(-c3c(N)ncc(C#N)c3-c3ccc(Cl)cc3)[nH]c2cc1C |  | 5.23 | > 100 |  | 44.2 µM | 46.3 µM | > 100 µM | 29.6 | 27.9 µM | 21.3 |  | 15 µM | 4.07 µM | 15.7 | 0.275 | 12 | 10.5 µM | 4.53 | 4.67 |  |
| COC(=O)[C@@H]1C=C[C@H](NC(C)=O)C1 |  | > 100 | > 100 | > 100 | > 100 µM | > 100 µM | > 100 µM | > 100 |  | > 100 |  |  |  |  |  |  |  |  |  |  |
| O=[N+]([O-])c1ccc2nc(/C=C(\O)c3ccc(Cl)cc3)c(/C=C(\O)c3ccc(Cl)cc3)nc2c1 |  |  |  | > 100 | > 100 µM | > 100 µM | > 100 µM | > 100 | 60.7 µM | > 100 |  |  |  |  |  |  |  |  |  |  |
| C=CCOC1(CC=C)C(=O)OC2C(O)COC21O (stereo not given) | > 100 |  | > 100 | > 100 | > 100 µM | > 100 µM | > 100 µM | > 100 | > 100 µM | > 100 |  |  |  |  |  |  |  |  |  |  |
| Cn1c(=O)n(CC2CS2)c2ccccc21 (stereo not given) | > 100 | > 100 |  | > 100 |  | > 100 µM |  |  | > 100 µM | > 100 |  |  |  |  |  |  |  |  |  |  |
| Nn1c(Sc2nc3ccccc3c(=O)n2N)nc2ccccc2c1=O |  | 29.3 | > 53.7 | 4.02 | 24.4 µM | 5.5 µM | 28.4 µM | 11.1 | 3.57 µM | 42.2 |  |  |  |  |  |  |  |  |  |  |
| CC(=Nc1cc(Cl)cc(Cl)c1)c1ccncc1 |  | > 100 | > 100 | > 100 | > 100 µM | > 100 µM | > 100 µM | > 100 | > 100 µM | > 100 |  |  |  |  |  |  |  |  |  |  |
| CC1CN=C(c2ccc(CN3CCC(C4CCN(Cc5ccc(C6=NCC(C)N6)cc5)CC4)CC3)cc2)N1 (stereo not given) | > 100 | > 100 | 41.8 | 44 | 36.3 µM |  | > 100 µM | > 100 | 33.7 µM | 57.5 |  |  |  |  |  |  |  |  |  |  |
| N#C/C(C(=O)Nc1ccccc1)=C(/N)N1CCCCC1 |  | > 100 |  | > 100 |  | > 100 µM | > 100 µM | > 100 |  |  |  |  |  |  |  |  |  |  |  |  |
| C=CCc1ccccc1C1CC2(C(=O)OC)OC1C(C(=O)OC)=C2C(=O)OC (stereo not given) | > 10 |  | > 10 | > 10 | > 10 µM | > 10 µM | > 10 µM | > 10 |  | > 10 |  |  |  |  |  |  |  |  |  |  |
| O=C1c2ccccc2C(=O)c2nn(N=P(CP(=Nn3nc4c(n3)C(=O)c3ccccc3C4=O)(c3ccccc3)c3ccccc3)(c3ccccc3)c3ccccc3)nc21 | > 100 | > 100 | > 100 | > 100 | > 100 µM |  | > 100 µM | > 100 | > 100 µM | > 100 |  |  |  |  |  |  |  |  |  |  |
| CC1(C)[C@@H](OC(N)=O)C=C[C@]2(CO)[C@H]3CC[C@]4(C)[C@@H](c5ccc(=O)oc5)[C@@H](Cl)C[C@]4(O)C3=CC[C@@H]12 |  | 0.0513 | 0.00837 | 0.0297 | 0.0588 µM and 0.159 µM | 0.0168 µM | 0.0127 µM | 0.0151 | 0.00305 µM |  |  | 0.00448 µM | < 0.0001 µM | < 0.0001 | 0.00862 | < 0.0001 | 0.017 µM and 0.0025 µM | 0.0028 |  | 0.0131 |
| COc1cc2oc(=O)cc(C)c2c(OC)c1OC(C)=O |  |  | > 100 | > 100 | > 100 µM | > 100 µM | > 100 µM | > 100 |  | > 100 |  |  |  |  |  |  |  |  |  |  |

Source: PubChem BioAssay (NCI)
